{"source": "patent US20240148767A1", "about": "“THE USE OF EMPAGLIFLOZIN FOR THE TREATMENT OF ULCERATIVE COLITIS AND CROHN'S DISEASE” (The Governors of the University of Alberta, priority 2021, published 2024)", "key": {"[1]": {"conditions": "mice, 10 mg/kg dose; cited from earlier work"}, "[2]": {"tested_on": "human THP-1 macrophages", "conditions": "pretreatment for 24 hours; cited from earlier work"}, "[3]": {"conditions": "cited from earlier work"}, "[4]": {"tested_on": "IL-10−/− mice with established colitis", "test": "EMPA treatment of adult IL-10−/− mice with established colitis", "type": "in vivo, mouse", "excerpt": "Methods: In our colony, IL-10−/− mice begin to develop colitis between 8-12 weeks of age. […] Further, this dose was also chosen to match the active dose in humans by considering the differences in the metabolism and other pharmacokinetic parameters between mice and humans^55. The dose used in this study results in free plasma concentration of ˜20 nmol/L in mice^56 which is within the normal and safe range of that reported in humans^57-59. […] Adult IL-10^−/− mice with established colitis were treated with a daily gavage of EMPA (10 mg/kg; n=10) or vehicle (n=10) for 14 days. Disease activity was assessed by measurement of mouse weight, colonic weight and length, histological score, cytokine levels in colonic homogenate and lipocalin-2 levels in stool. To examine for possible direct effects of EMPA, colonic explants from wild-type and IL-10^−/− mice were incubated with increasing doses of EMPA (0.1-5 μM)±LPS for 2 hours and tissue levels of IL-1β and TNFα measured.\nFIG. 4. Representative histological samples of colons. Colons were flushed with phosphate-buffered saline containing 0.1% gentamycin and immediately fixed in 10% v/v neutral buffered formalin. The fixed samples were paraffin-embedded, sectioned, and stained with hematoxylin and eosin. Disease scoring methods used were based on four scores: 1) epithelial hyperplasia (0-3), 2) enterocyte injury (0-3), 3) lymphocytes (0-2) and neutrophil infiltration (0-2) in the lamina propria. The total maximum histological score (10) is based on the sum of the individual scores. (A) control. (B) Empa."}, "[5]": {"tested_on": "murine macrophages", "conditions": "murine macrophages in vitro, cited from earlier work"}, "[6]": {"tested_on": "SGLT2 over SGLT1", "conditions": "cited from earlier work"}, "[7]": {"conditions": "healthy humans, dose matched to the human active dose; cited from earlier work"}, "[8]": {"conditions": "EMPA 10 mg/kg daily gavage, 14 days, p=0.04"}}, "note": "“Also recorded” adds a separate entry of the source."}
{"smiles": "OC[C@H]1O[C@@H](c2ccc(Cl)c(Cc3ccc(O[C@H]4CCOC4)cc3)c2)[C@H](O)[C@@H](O)[C@@H]1O", "note": "[EMPA, Empagliflozin]", "values": [{"measurement": "free plasma concentration", "setting": "[1]", "result": "~20", "unit": "nM"}, {"measurement": "TNFα-stimulated chemokine release", "setting": "[2]", "result": "decreased"}, {"measurement": "time to peak levels", "setting": "[3]; after a single dose", "result": 1.5, "unit": "h"}, {"measurement": "bioavailability", "setting": "[3]; humans", "result": 78, "unit": "%"}, {"measurement": "half-life", "setting": "[3]; in humans", "result": "~12", "unit": "h"}, {"measurement": "recovered in the feces as unchanged drug", "setting": "[3]; in vivo", "result": "Approximately 40%"}, {"measurement": "lymphocytic infiltration into the lamina propria", "setting": "[4]; EMPA 10 mg/kg daily gavage, 14 days", "result": "reduced"}, {"measurement": "enterocyte injury (histological score)", "setting": "[4]; EMPA 10 mg/kg daily gavage, 14 days, vs vehicle, p<0.01", "result": "no enterocyte injury; also recorded: significant decrease"}, {"measurement": "total histological score", "setting": "[4]; EMPA 10 mg/kg daily gavage, 14 days, vs vehicle, p=0.006", "result": "decreased"}, {"measurement": "lamina propria neutrophils (histological score)", "setting": "[4]; EMPA 10 mg/kg daily gavage, 14 days, vs vehicle, p=0.01", "result": "decreased"}, {"measurement": "colonic weight to length ratio", "setting": "[4]; EMPA 10 mg/kg daily gavage, 14 days, vs vehicle, p=0.019", "result": "decreased"}, {"measurement": "fecal lipocalin-2", "setting": "[4]; EMPA 10 mg/kg daily gavage, 14 days, vs vehicle, p=0.03", "result": "decrease"}, {"measurement": "colonic TNFα (real-time qPCR)", "setting": "[4]; EMPA 10 mg/kg daily gavage, 14 days, p=0.02", "result": "significant decreases"}, {"measurement": "colonic IFNγ (real-time qPCR)", "setting": "[4]; [8]", "result": "significant decreases"}, {"measurement": "colonic IL-1β (real-time qPCR)", "setting": "[4]; [8]", "result": "significant decreases"}, {"measurement": "body weight over the 14 days", "setting": "[4]; EMPA 10 mg/kg daily gavage, vehicle treated mice continued to lose weight, p=0.04", "result": "maintained their weight"}, {"measurement": "blood glucose levels in pilot experiments", "setting": "[4]; EMPA 10 mg/kg dose, pilot experiments", "result": "no effect"}, {"measurement": "blood glucose levels", "setting": "[4]; EMPA-treated mice vs controls, 14 days", "result": "no significant differences"}, {"measurement": "expression of anti-inflammatory M2 markers", "setting": "[5]; AMPK-mediated mechanism", "result": "increased"}, {"measurement": "LPS-induced ATP depletion", "setting": "[5]", "result": "prevented"}, {"measurement": "LPS-induced TNFα and iNOS expression", "setting": "[5]", "result": "attenuated"}, {"measurement": "selectivity for SGLT2 over SGLT1", "setting": "[6]", "result": "~2700", "unit": "fold"}, {"measurement": "hypoglycemia", "setting": "[7]", "result": "does not cause hypoglycemia"}]}
